Laboratory results reported in article PMC2827657 (Biochemistry, 2010).

Key:
[1] = target: NSMOA (Pseudomonas putida, UniProt O33471); test: Linkage relationships of ligand binding and redox equilibria of NSMOA; parameters: species or system Pseudomonas putida S12
[2] = target: apo NSMOA (Pseudomonas sp, UniProt O50214); test: biochemical
[3] = target: NSMOA (Pseudomonas sp, UniProt O50214); test: Stopped-flow fluorescence kinetics of oxidized FAD binding to NSMOA; parameters: species or system Pseudomonas putida S12; details: 280 μM NSMOA mixed with 50 μM FAD, 25°C, four-exponential fit
[4] = cited from earlier work
[5] = test system: P. putida S12; details: growth of P. putida S12; cited from earlier work
[6] = calculated from linkage relationships

Chain of NSMOA (Pseudomonas sp, UniProt O50214) (O50214 whole entry): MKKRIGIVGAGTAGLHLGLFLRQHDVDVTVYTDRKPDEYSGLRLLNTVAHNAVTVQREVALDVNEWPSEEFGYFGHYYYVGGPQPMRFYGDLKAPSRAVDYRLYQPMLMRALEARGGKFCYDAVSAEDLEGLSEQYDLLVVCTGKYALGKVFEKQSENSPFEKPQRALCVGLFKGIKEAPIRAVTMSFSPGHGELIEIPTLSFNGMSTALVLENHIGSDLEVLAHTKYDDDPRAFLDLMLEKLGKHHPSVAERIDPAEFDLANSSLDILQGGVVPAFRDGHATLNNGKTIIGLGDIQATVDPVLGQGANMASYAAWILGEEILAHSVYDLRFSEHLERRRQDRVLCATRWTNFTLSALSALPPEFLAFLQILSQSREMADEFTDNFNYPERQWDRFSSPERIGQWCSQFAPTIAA
Chain of apo NSMOA (O50214 whole entry): as above

SMILES: c1ccccc1 [benzene, reference compound]
- positive cooperative interaction of benzene and reduced FAD binding (Kd1/Kd7) ([1]; benzene affinity for reduced-FAD complex of NSMOA relative to comparison state): ~2 fold
- decrease in cooperativity of substrate-analog and reduced-FAD binding equilibria ([1]; relative to oxidized FAD cooperativity): 30 fold
- Kd [2]: 4.2 ± 0.37 mM

SMILES: Cc1cc2nc3c(=O)[nH]c(=O)nc-3n(C[C@H](O)[C@H](O)[C@H](O)COP(=O)(O)OP(=O)(O)OC[C@H]3O[C@@H](n4cnc5c(N)ncnc54)[C@H](O)[C@@H]3O)c2cc1C [oxidized FAD, flavin adenine dinucleotide]
- equilibrium midpoint potential of FAD bound to benzene-bound NSMOA [1, 6]: -142 mV
- equilibrium midpoint potential of FAD bound to benzene-free NSMOA [1, 6]: -97 mV
- rate constant k1 [3]: 265 s⁻¹
- rate constant k2 [3]: 120 s⁻¹
- rate constant k3 [3]: 21 s⁻¹
- rate constant k4 [3]: 0.34 s⁻¹
- Em1, solution potential of free FAD [4]: -212 mV

SMILES: C=Cc1ccccc1 [styrene]
- styrene concentration at which growth is inhibited [5]: greater than 300 μM
